Assay results taken from US20220249441A1, “Homodimeric Tobramycin Adjuvant Repurposes Novobiocin as an Effective Antibacterial Agent Against Gram-Negative Bacteria” (priority 2019, published 2022).
In brackets after ≈: the same amount, converted by molar mass. Where two headings read alike, the source gives them in different places. Values belong to the compound of their own block, whether it stands above or below them.

How the values were obtained:
P. aeruginosa = test: Checkerboard assay (antibiotic + adjuvant combination MIC); format: cell-based, Pseudomonas aeruginosa
Method: (§1) Antimicrobial Susceptibility Assay. The in vitro antimicrobial activity of all compounds/antibiotics against a panel of bacteria was evaluated by microbroth dilution method in accordance with the Clinical and Laboratory Standards Institute (CLSI) guidelines (using ATCC strains as quality control strains) (54). Overnight grown bacterial cultures were diluted in saline to achieve a 0.5 McFarland turbidity, followed by 1:50 dilution in Mueller-Hinton broth (MHB) for inoculation to a final concentration of approximately 5×10^5 CFU/mL. […] The lowest concentration that prevented the visible growth of bacteria was defined as the MIC for each antimicrobial agent. The broth with or without bacterial cells was used as positive or negative control, respectively.
Checkerboard Assay. Combination studies with different antibiotics were performed in 96-well plates as previously described (19). Briefly, the antibiotic of interest was serially diluted in MHB along the abscissa while the adjuvant (tobramycin homodimer) was serially diluted in MHB along the ordinate. This creates a 10×7 matrices wherein each well consists of a combination of different antibiotic and adjuvant concentrations. Overnight grown bacterial cultures were diluted in saline to achieve a 0.5 McFarland turbidity, followed by 1:50 dilution in Mueller-Hinton broth (MHB) for inoculation to a final concentration of approximately 5×10^5 CFU/mL. […] MIC was recorded as wells with the lowest concentration of drugs with no bacterial growth. The fractional inhibitory concentration (FIC) for each antibiotic was calculated by dividing the MIC of the antibiotic in the presence of adjuvant by the MIC of the antibiotic alone. Similarly, the FIC of adjuvant was calculated by dividing the MIC of the adjuvant in the presence of antibiotic by the MIC of the adjuvant alone. FIC index is the sum of both FICs. FIC indices of ≤0.5 were deemed synergistic; >0.5-4, no interaction; and >4, antagonistic.

[1] = tested on: A. baumannii ATCC 17978 and resistant mutants; test: microbe, parasite or virus in culture; format: cell-based, Acinetobacter baumannii; settings: Acinetobacter baumannii
Method: as §1
Development of Resistance Study. […] Tobramycin and colistin were included as controls. At 24-hour intervals, the cultures were assessed for growth. […] This serial passaging was repeated for 8 days.

[2] = tested on: P. aeruginosa PAO1 and efflux deficient mutants, MDR/XDR isolates; test: microbe, parasite or virus in culture; format: cell-based, Pseudomonas aeruginosa
Method: Antimicrobial Susceptibility Assay. The in vitro antimicrobial activity of all compounds/antibiotics against a panel of bacteria was evaluated by microbroth dilution method in accordance with the Clinical and Laboratory Standards Institute (CLSI) guidelines (using ATCC strains as quality control strains) (54). […] The broth with or without bacterial cells was used as positive or negative control, respectively.

[3] = ATCC17978, 18 h, Mutant C (seven serial passages, sub-MICs novobiocin + 7.1 μM compound 1)
[4] = ATCC17978, Mutant A (seven serial passages, sub-MICs novobiocin)
[5] = ATCC17978, Mutant B (seven serial passages, sub-MICs colistin)
[6] = ATCC17978, Wild-type A. baumannii ATCC 17978
[7] = P. aeruginosa PAO1, compound at 8 μM
[8] = PA 262-101856, compound at 8 μM
[9] = PA 264-104354, compound at 8 μM
[10] = PA O200 (efflux-deficient), compound at 8 μM
[11] = PA O750 (efflux-deficient), compound at 8 μM

- MIC Alone (P. aeruginosa; P. aeruginosa PAO1, β-lactam antibiotic alone): 4 µg/mL
- MIC of ATM alone (P. aeruginosa; PA 259-96918): 32 µg/mL
- MIC of ATM alone (P. aeruginosa; PA 260-97103): 64 µg/mL
- MIC of ATM alone (P. aeruginosa; PA 262-101856): 32 µg/mL
- MIC of ATM alone (P. aeruginosa; PA 264-104354): 32 µg/mL
- MIC of ATM alone (P. aeruginosa; PA 86052): 64 µg/mL
- MIC of ATM alone (P. aeruginosa; PA 88949): 32 µg/mL
- MIC of ATM alone (P. aeruginosa; PA 91433): 16 µg/mL
- MIC of ATM alone (P. aeruginosa; PA 100036): 16 µg/mL
- MIC of ATM alone (P. aeruginosa; PA 101243): 32 µg/mL
- MIC of ATM alone (P. aeruginosa; PA 101885): 16 µg/mL
- MIC of ATM alone (P. aeruginosa; PA 107092): 64 µg/mL
- MIC of ATM alone (P. aeruginosa; PA 108590): 32 µg/mL
- MIC of ATM alone (P. aeruginosa; PA 109084): 64 µg/mL
- MIC of ATM alone (P. aeruginosa; PA 114228): 32 µg/mL
- MIC of ATM alone (P. aeruginosa; PAO1): 4 µg/mL
Compound: C[C@H]1[C@H](NC(=O)/C(=N\OC(C)(C)C(=O)O)c2csc(N)n2)C(=O)N1S(=O)(=O)O [Aztreonam, reference compound]

Compound: CO[C@H]1/C=C/O[C@@]2(C)Oc3c(C)c(O)c4c(O)c(c(/C=N/N5CCN(C)CC5)c(O)c4c3C2=O)NC(=O)/C(C)=C\C=C\[C@H](C)[C@H](O)[C@@H](C)[C@@H](O)[C@@H](C)[C@H](OC(C)=O)[C@@H]1C [Rifampicin]
- MIC [1, 3]: 2 µg/mL
- MIC [1, 4]: 2 µg/mL (≈ 2.43 µM)
- MIC [1, 5]: < 0.031 µg/mL
- MIC [1, 6]: 2 µg/mL (≈ 2.43 µM)

Compound: NC[C@H]1O[C@H](O[C@H]2[C@H](OCCCCc3cn(CCCCO[C@@H]4[C@@H](O)[C@H](N)C[C@H](N)[C@H]4O[C@H]4O[C@H](CN)[C@@H](O)C[C@H]4N)nn3)[C@@H](O)[C@H](N)C[C@@H]2N)[C@H](N)C[C@@H]1O [Compound 26, Nebramine Homodimer]
- MIC ([2]; PAO1 (wild-type)): >128 µg/mL
- MIC ([2]; PAO200 (first column so headed)): >128 µg/mL
- MIC ([2]; PAO200 (second column so headed)): 128 µg/mL (≈ 162 µM)
- MIC of CAZ in the presence of compound (P. aeruginosa): 128 µg/mL
- MIC of Aztreonam + compound (P. aeruginosa; [7]): 1 µg/mL
- MIC of Ceftazidime + compound (P. aeruginosa; [7]): 0.5 µg/mL
- MIC of Imipenem + compound (P. aeruginosa; [7]): 2 µg/mL
- MIC of Piperacillin + compound (P. aeruginosa; [7]): 8 µg/mL
- MIC of ATM in the presence of compound (P. aeruginosa; PA 259-96918, compound at 8 μM): 8 µg/mL
- MIC of IPM in the presence of compound (P. aeruginosa; PA 259-96918, compound at 8 μM): 64 µg/mL
- MIC of ATM in the presence of compound (P. aeruginosa; PA 260-97103, compound at 8 μM): 16 µg/mL
- MIC of CAZ in the presence of compound (P. aeruginosa; PA 260-97103, compound at 8 μM): 16 µg/mL
- MIC of IPM in the presence of compound (P. aeruginosa; PA 260-97103, compound at 8 μM): 16 µg/mL
- MIC of ATM in the presence of compound (P. aeruginosa; [8]): 16 µg/mL
- MIC of CAZ in the presence of compound (P. aeruginosa; [8]): 16 µg/mL
- MIC of IPM in the presence of compound (P. aeruginosa; [8]): 4 µg/mL
- MIC of ATM in the presence of compound (P. aeruginosa; [9]): 8 µg/mL
- MIC of CAZ in the presence of compound (P. aeruginosa; [9]): 32 µg/mL
- MIC of IPM in the presence of compound (P. aeruginosa; [9]): 8 µg/mL
- MIC of ATM in the presence of compound (P. aeruginosa; PA 86052, compound at 8 μM): 32 µg/mL
- MIC of CAZ in the presence of compound (P. aeruginosa; PA 86052, compound at 8 μM): 64 µg/mL
- MIC of IPM in the presence of compound (P. aeruginosa; PA 86052, compound at 8 μM): 16 µg/mL
- MIC of ATM in the presence of compound (P. aeruginosa; PA 88949, compound at 8 μM): 16 µg/mL
- MIC of CAZ in the presence of compound (P. aeruginosa; PA 88949, compound at 8 μM): 64 µg/mL
- MIC of IPM in the presence of compound (P. aeruginosa; PA 88949, compound at 8 μM): 32 µg/mL
- MIC of ATM in the presence of compound (P. aeruginosa; PA 91433, compound at 8 μM): 2 µg/mL
- MIC of CAZ in the presence of compound (P. aeruginosa; PA 91433, compound at 8 μM): 0.5 µg/mL
- MIC of IPM in the presence of compound (P. aeruginosa; PA 91433, compound at 8 μM): 8 µg/mL
- MIC of ATM in the presence of compound (P. aeruginosa; PA 100036, compound at 8 μM): 4 µg/mL
- MIC of CAZ in the presence of compound (P. aeruginosa; PA 100036, compound at 8 μM): 4 µg/mL
- MIC of IPM in the presence of compound (P. aeruginosa; PA 100036, compound at 8 μM): 4 µg/mL
- MIC of ATM in the presence of compound (P. aeruginosa; PA 101243, compound at 8 μM): 8 µg/mL
- MIC of CAZ in the presence of compound (P. aeruginosa; PA 101243, compound at 8 μM): 32 µg/mL
- MIC of IPM in the presence of compound (P. aeruginosa; PA 101243, compound at 8 μM): 8 µg/mL
- MIC of ATM in the presence of compound (P. aeruginosa; PA 101885, compound at 8 μM): 4 µg/mL
- MIC of CAZ in the presence of compound (P. aeruginosa; PA 101885, compound at 8 μM): 1 µg/mL
- MIC of IPM in the presence of compound (P. aeruginosa; PA 101885, compound at 8 μM): 4 µg/mL
- MIC of ATM in the presence of compound (P. aeruginosa; PA 107092, compound at 8 μM): 32 µg/mL
- MIC of IPM in the presence of compound (P. aeruginosa; PA 107092, compound at 8 μM): 32 µg/mL
- MIC of ATM in the presence of compound (P. aeruginosa; PA 108590, compound at 8 μM): 16 µg/mL
- MIC of CAZ in the presence of compound (P. aeruginosa; PA 108590, compound at 8 μM): 32 µg/mL
- MIC of IPM in the presence of compound (P. aeruginosa; PA 108590, compound at 8 μM): 8 µg/mL
- MIC of ATM in the presence of compound (P. aeruginosa; PA 109084, compound at 8 μM): 16 µg/mL
- MIC of CAZ in the presence of compound (P. aeruginosa; PA 109084, compound at 8 μM): 32 µg/mL
- MIC of IPM in the presence of compound (P. aeruginosa; PA 109084, compound at 8 μM): 16 µg/mL
- MIC of ATM in the presence of compound (P. aeruginosa; PA 114228, compound at 8 μM): 16 µg/mL
- MIC of CAZ in the presence of compound (P. aeruginosa; PA 114228, compound at 8 μM): 1 µg/mL
- MIC of IPM in the presence of compound (P. aeruginosa; PA 114228, compound at 8 μM): 4 µg/mL
- MIC of ATM in the presence of compound (P. aeruginosa; [10]): 0.06 µg/mL
- MIC of CAZ in the presence of compound (P. aeruginosa; [10]): 0.25 µg/mL
- MIC of IPM in the presence of compound (P. aeruginosa; [10]): 1 µg/mL
- MIC of ATM in the presence of compound (P. aeruginosa; [11]): 0.25 µg/mL
- MIC of CAZ in the presence of compound (P. aeruginosa; [11]): 0.13 µg/mL
- MIC of IPM in the presence of compound (P. aeruginosa; [11]): 2 µg/mL
- MIC of ATM in the presence of compound (P. aeruginosa; PAO1, compound at 8 μM): 1 µg/mL
- MIC of CAZ in the presence of compound (P. aeruginosa; PAO1, compound at 8 μM): 0.5 µg/mL
- MIC of IPM in the presence of compound (P. aeruginosa; PAO1, compound at 8 μM): 2 µg/mL

Compound: O=C(N[C@H](CO)[C@H](O)c1ccc([N+](=O)[O-])cc1)C(Cl)Cl [Chloramphenicol]
- MIC [1, 3]: 64 µg/mL
- MIC [1, 4]: 32 µg/mL (≈ 99 µM)
- MIC [1, 5]: 8 µg/mL (≈ 24.8 µM)
- MIC [1, 6]: 64 µg/mL (≈ 198 µM)

Compound: CN(C)c1ccc(O)c2c1C[C@H]1C[C@H]3[C@H](N(C)C)C(O)=C(C(N)=O)C(=O)[C@@]3(O)C(O)=C1C2=O [Minocycline]
- MIC [1, 3]: 0.125 µg/mL
- MIC [1, 4]: 0.5 µg/mL (≈ 1.09 µM)
- MIC [1, 5]: < 0.031 µg/mL
- MIC [1, 6]: 0.125 µg/mL (≈ 0.273 µM)
